The values below come from PMC5597302 (Angewandte Chemie (International ed. in English), 2016).

The test system of data set [1] is B16 melanoma cells expressing human uPAR. As to the kind of experiment: B16-uPAR mouse allograft model. To be noted: Dox 1 mpk.
The target in another data set is uPAR (Homo sapiens, UniProt Q03405). The settings on record: read-out: affinity for uPAR; reported value; ref 8a; cited from earlier work.
Chain of uPAR (Q03405 23-335): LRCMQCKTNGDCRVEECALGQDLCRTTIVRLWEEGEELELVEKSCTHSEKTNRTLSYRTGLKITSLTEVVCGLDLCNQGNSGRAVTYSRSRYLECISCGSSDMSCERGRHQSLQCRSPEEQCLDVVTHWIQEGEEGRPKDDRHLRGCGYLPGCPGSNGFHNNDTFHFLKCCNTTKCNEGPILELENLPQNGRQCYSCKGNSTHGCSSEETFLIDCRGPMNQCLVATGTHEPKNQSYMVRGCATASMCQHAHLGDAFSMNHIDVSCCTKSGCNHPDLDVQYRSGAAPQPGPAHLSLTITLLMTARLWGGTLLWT

For the molecule `COc1cccc2c1C(=O)c1c(O)c3c(c(O)c1C2=O)C[C@@](O)(C(=O)CO)C[C@@H]3O[C@H]1C[C@H](N)[C@H](O)[C@H](C)O1` [Dox, doxorubicin], in data set [1] (daily IP, combination ARM-U2 20 mpk and Dox 1 mpk), the “level of TGI relative to ARM-U2” value is given as “comparable”. In addition, in data set [1] (throughout the experiments, ARM-U2 20 or 100 mpk), the body weight loss result is “significant levels of weight loss”.
On to `O=C(O)c1cccc(Nc2cc(N3CCCCCC3)c3noc4c3c2C(=O)c2ccccc2-4)c1` [IPR-803], for which, on uPAR, the Kd was 200 nM.
